# Measurements published in patent publication US9657351B2, “MRNA-based gene expression for personalizing patient cancer therapy with an MDM2 antagonist” (Hoffmann-La Roche Inc., priority 2013, dated 2017).
# What was measured:
# Experiment in all cases: COMPOUND A In Vitro Assay
# Type in all cases: cell-based
# HCC827 = conditions: Homo sapiens, Lung, TP53 Mutant
# Method in brief: (§1)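 Cell lines from a broad panel of human tumour types were treated with the MDM2 antagonist RG7112 in high-throughput screens to derive IC50 values. Lines with IC50<=1 were called sensitive, and those with IC50>=10 resistant.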
# MIA PaCa-2 = conditions: Homo sapiens, Pancreas, TP53 Mutant
# Method in brief: as §1
# SUM-44PE = conditions: Homo sapiens, Breast, TP53 Wild type
# Method in brief: as §1
# HCC1569 = conditions: Homo sapiens, Breast, mammary gland, TP53 Mutant
# Method in brief: as §1
# NCI-H2347 = conditions: Homo sapiens, Lung, TP53 Wild type
# Method in brief: as §1
# WiDr = conditions: Homo sapiens, Intestine, large, colon, TP53 Mutant
# Method in brief: as §1
# NCI-H2030 = conditions: Homo sapiens, Lung, TP53 Mutant
# Method in brief: as §1
# WERI-Rb-1 = conditions: Homo sapiens
# Method in brief: as §1
# L-363 = conditions: Homo sapiens, Lymphocyte, peripheral blood, TP53 Mutant
# Method in brief: as §1
# NB-4 = conditions: Homo sapiens, Myeloblast, TP53 Mutant
# Method in brief: as §1
# NCI-H250 = conditions: Homo sapiens, Lung, TP53 NA
# Method in brief: as §1
# DMS 114 = conditions: Homo sapiens, Lung, TP53 Mutant
# Method in brief: as §1
# CMK-11-5 = conditions: Homo sapiens, Lymphocyte, TP53 Mutant
# Method in brief: as §1
# NCI-H1703 = conditions: Homo sapiens, Lung, TP53 Mutant
# Method in brief: as §1
# PA-1 = conditions: Homo sapiens
# Method in brief: as §1
# HCC1806 = conditions: Homo sapiens, Breast, mammary gland, TP53 Mutant
# Method in brief: as §1
# Caki-1 = conditions: Homo sapiens
# Method in brief: as §1
# Hep3B = conditions: Homo sapiens, Liver, TP53 Mutant
# Method in brief: as §1
# SH-SY5Y = conditions: Homo sapiens
# Method in brief: as §1
# Hs 578T = conditions: Homo sapiens, Breast, mammary gland, TP53 Mutant
# Method in brief: as §1
# SW403 = conditions: Homo sapiens, SW-403, Intestine, large, colon, TP53 Mutant
# Method in brief: as §1
# SK-N-SH = conditions: Homo sapiens
# Method in brief: as §1
# SW780 = conditions: Homo sapiens
# Method in brief: as §1
# MFE-280 = conditions: Homo sapiens, Uterus, endometrium, TP53 Mutant
# Method in brief: as §1
# HEC-151 = conditions: Homo sapiens, Uterus, TP53 Mutant
# Method in brief: as §1
# T84 = conditions: Homo sapiens, Intestine, large, colon, TP53 Mutant
# Method in brief: as §1
# NCI-H1975 = conditions: Homo sapiens, Lung, TP53 Mutant
# Method in brief: as §1
# SCC-25 = conditions: Homo sapiens, Tongue, TP53 Mutant
# Method in brief: as §1
# NCI-H1395 = conditions: Homo sapiens, Lung, TP53 Wild type
# Method in brief: as §1
# NCI-H209 = conditions: Homo sapiens, Lung, TP53 Mutant
# Method in brief: as §1
# NCI-H446 = conditions: Homo sapiens, Lung, TP53 Mutant
# Method in brief: as §1
# EFO-21 = conditions: Homo sapiens, Ovary, TP53 Mutant
# Method in brief: as §1
# PC-10 = conditions: Homo sapiens, PC10, Lung, TP53 Mutant
# Method in brief: as §1
# NCI-H1781 = conditions: Homo sapiens, Lung, TP53 Mutant
# Method in brief: as §1
# RL95-2 = conditions: Homo sapiens, Uterus, endometrium, TP53 Mutant
# Method in brief: as §1
# LNCaP clone FGC = conditions: Homo sapiens
# Method in brief: as §1
# SNU-5 = conditions: Homo sapiens, Stomach, TP53 Mutant
# Method in brief: as §1
smiles,measurement,setting,value
CCOc1cc(C(C)(C)C)ccc1C1=N[C@@](C)(c2ccc(Cl)cc2)[C@@](C)(c2ccc(Cl)cc2)N1C(=O)N1CCN(CCCS(C)(=O)=O)CC1 [COMPOUND A],IC50,HCC827,8.9 µM
same,IC50,MIA PaCa-2,19 µM
same,IC50,SUM-44PE,3000 nM
same,IC50,HCC1569,15 µM
same,IC50,NCI-H2347,9 µM
same,IC50,WiDr,8.9 µM
same,IC50,NCI-H2030,9.2 µM
same,IC50,"WERI-Rb-1; WERI-Rb-1, Eye, retina, TP53 Wild type",670 nM
same,IC50,WERI-Rb-1; WERI-Rb-1 cells,700 nM
same,IC50,L-363,32 µM
same,IC50,NB-4,4.7 µM
same,IC50,NCI-H250,12 µM
same,IC50,DMS 114,10 µM
same,IC50,CMK-11-5,9.6 µM
same,IC50,NCI-H1703,9.1 µM
same,IC50,"PA-1; PA-1, PA-1, Ovary, TP53 Wild type",620 nM
same,IC50,"PA-1; PA-1, PA-1 cells",600 nM
same,IC50,HCC1806,11 µM
same,IC50,"Caki-1; CAKI-1, Caki-1, Kidney, TP53 Wild type",370 nM
same,IC50,"Caki-1; CAKI-1, Caki-1 cells",400 nM
same,IC50,Hep3B,6.7 µM
same,IC50,"SH-SY5Y; Brain, TP53 Wild type",750 nM
same,IC50,SH-SY5Y; SH-SY5Y cells,800 nM
same,IC50,Hs 578T,8.8 µM
same,IC50,SW403,6 µM
same,IC50,"SK-N-SH; Brain, TP53 Wild type",210 nM
same,IC50,SK-N-SH; SK-N-SH cells,200 nM
same,IC50,"SW780; SW780, SW780, Urinary, bladder, TP53 Wild type",970 nM
same,IC50,"SW780; SW780, SW780 cells",1000 nM
same,IC50,MFE-280,23 µM
same,IC50,HEC-151,2200 nM
same,IC50,T84,5.3 µM
same,IC50,NCI-H1975,16 µM
same,IC50,SCC-25,9.4 µM
same,IC50,NCI-H1395,1300 nM
same,IC50,NCI-H209,11 µM
same,IC50,NCI-H446,18 µM
same,IC50,EFO-21,31 µM
same,IC50,PC-10,14 µM
same,IC50,NCI-H1781,8.8 µM
same,IC50,RL95-2,9.3 µM
same,IC50,LNCaP clone FGC; LNCaP clone FGC cells,200 nM
same,IC50,"LNCaP clone FGC; LNCaP clone FGC, tissue NA, TP53 Wild type",170 nM
same,IC50,SNU-5,16 µM
